# Reference: PubChem BioAssay AID248 (DTP/NCI, 2004)
# Where “and” joins values, the source holds several entries; their conditions need not be identical. Equal values may be shown once. Toxic doses and inconclusive results are not listed.
# Test system: L1210 leukemia ip in BDF1 mice, survival T/C
# Test: NCI In Vivo Anticancer Drug Screen. Data for tumor model L1210 Leukemia (intraperitoneal) in B6D2F1 (BDF1) mice
# Conditions: endpoint: mean survival time, higher = longer survival
# Summary of the method: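 In this screen, tumor-bearing mice given compound are compared to those given vehicle, and their survival values are reported as a treated-to-control quotient.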
# [1] = dose: 100.0 mg/kg/injection, schedule: Q01DX009 (ip), vehicle: Klucel (hydroxypropylcellulose) (HPC)
# [2] = dose: 100.0 mg/kg/injection, schedule: Q04DX003 (ip), vehicle: Klucel (hydroxypropylcellulose) (HPC)
# [3] = dose: 200.0 mg/kg/injection, schedule: Q01DX009 (ip), vehicle: Klucel (hydroxypropylcellulose) (HPC)
# [4] = dose: 200.0 mg/kg/injection, schedule: Q04DX003 (ip), vehicle: Klucel (hydroxypropylcellulose) (HPC)
# [5] = dose: 400.0 mg/kg/injection, schedule: Q01DX009 (ip), vehicle: Klucel (hydroxypropylcellulose) (HPC)
# [6] = dose: 400.0 mg/kg/injection, schedule: Q04DX003 (ip), vehicle: Klucel (hydroxypropylcellulose) (HPC)
# [7] = dose: 100.0 mg/kg/injection, schedule: Q01DX009 (ip), vehicle: saline
# [8] = dose: 200.0 mg/kg/injection, schedule: Q01DX009 (ip), vehicle: saline
# [9] = dose: 400.0 mg/kg/injection, schedule: Q01DX009 (ip), vehicle: saline
compound,measurement,setting,value
O=C(CCCN1CCN(c2ccccn2)CC1)c1ccc(F)cc1,T/C,"dose: 12.5 mg/kg/injection, schedule: Q01DX009 (ip), vehicle: Klucel (hydroxypropylcellulose) (HPC)",96 % of control and 106 % of control
same,T/C,"dose: 25.0 mg/kg/injection, schedule: Q01DX009 (ip), vehicle: Klucel (hydroxypropylcellulose) (HPC)",97 % of control and 101 % of control and 106 % of control
same,T/C,"dose: 25.0 mg/kg/injection, schedule: Q04DX003 (ip), vehicle: Klucel (hydroxypropylcellulose) (HPC)",97 % of control
same,T/C,"dose: 50.0 mg/kg/injection, schedule: Q01DX009 (ip), vehicle: Klucel (hydroxypropylcellulose) (HPC)",108 % of control and 109 % of control and 114 % of control
same,T/C,"dose: 50.0 mg/kg/injection, schedule: Q04DX003 (ip), vehicle: Klucel (hydroxypropylcellulose) (HPC)",108 % of control
same,T/C,[1],108 % of control and 110 % of control
same,T/C,[2],103 % of control
same,T/C,[3],105 % of control and 110 % of control
same,T/C,[4],123 % of control
CN1CCCN(C(=S)S)CC1,T/C,"dose: 30.0 mg/kg/injection, schedule: Q01DX001 (ip), vehicle: saline",96 % of control
same,T/C,"dose: 100.0 mg/kg/injection, schedule: Q01DX001 (ip), vehicle: saline",95 % of control
CCC/C=C/C(C)C,T/C,[1],105 % of control
same,T/C,[2],93 % of control
same,T/C,[3],92 % of control
same,T/C,[4],97 % of control
same,T/C,[5],95 % of control
same,T/C,[6],101 % of control
O=C1c2ccccc2C(=O)c2cc3nc4c5ccccc5c5ccccc5c4nc3cc21,T/C,"dose: 100.0 mg/kg/injection, schedule: Q01DX009 (ip), vehicle: saline with Tween-80",93 % of control
same,T/C,"dose: 100.0 mg/kg/injection, schedule: Q04DX002 (ip), vehicle: saline with Tween-80",103 % of control
same,T/C,"dose: 200.0 mg/kg/injection, schedule: Q01DX009 (ip), vehicle: saline with Tween-80",90 % of control
same,T/C,"dose: 200.0 mg/kg/injection, schedule: Q04DX002 (ip), vehicle: saline with Tween-80",97 % of control
same,T/C,"dose: 400.0 mg/kg/injection, schedule: Q01DX009 (ip), vehicle: saline with Tween-80",97 % of control
same,T/C,"dose: 400.0 mg/kg/injection, schedule: Q04DX002 (ip), vehicle: saline with Tween-80",100 % of control
CCCCCCCC[n+]1ccc(C#N)cc1,T/C,"dose: 18.8 mg/kg/injection, schedule: Q04DX003 (ip), vehicle: saline",97 % of control
same,T/C,"dose: 37.5 mg/kg/injection, schedule: Q04DX003 (ip), vehicle: saline",100 % of control
same,T/C,"dose: 75.0 mg/kg/injection, schedule: Q01DX001 (ip), vehicle: saline",96 % of control
same,T/C,"dose: 75.0 mg/kg/injection, schedule: Q04DX003 (ip), vehicle: saline",100 % of control
CCN(CC)C(=S)[S][Sb]([c]1ccccc1)[c]1ccccc1,T/C,"dose: 100.0 mg/kg/injection, schedule: Q01DX001 (ip), vehicle: steriod suspending solution",110 % of control
CCCCCCCCCCCCCCCCCCNC(=O)N(CC)c1ccccc1C,T/C,[1],101 % of control
same,T/C,[2],93 % of control
same,T/C,[3],98 % of control
same,T/C,[4],90 % of control
same,T/C,[5],101 % of control
same,T/C,[6],92 % of control
Cn1c(O)c(N=Nc2ccccc2[N+](=O)[O-])c2ccccc21,T/C,"dose: 100.0 mg/kg/injection, schedule: Q01DX001 (ip), vehicle: other",95 % of control
same,T/C,"dose: 200.0 mg/kg/injection, schedule: Q01DX001 (ip), vehicle: other",90 % of control
same,T/C,"dose: 400.0 mg/kg/injection, schedule: Q01DX001 (ip), vehicle: other",95 % of control
CCN1C(=O)CC(O)C1=O (configuration not stated),T/C,[7],101 % of control
same,T/C,[8],100 % of control
same,T/C,[9],97 % of control
CCCCCCCC(=O)/C=C/c1ccc(C)cc1,T/C,"dose: 100.0 mg/kg/injection, schedule: Q04DX003 (ip), vehicle: saline",105 % of control
same,T/C,"dose: 200.0 mg/kg/injection, schedule: Q04DX003 (ip), vehicle: saline",103 % of control
same,T/C,"dose: 400.0 mg/kg/injection, schedule: Q04DX003 (ip), vehicle: saline",92 % of control
O=C(O)c1ccccc1C(=O)c1cccs1,T/C,[7],94 % of control
same,T/C,"dose: 100.0 mg/kg/injection, schedule: Q04DX003 (ip), vehicle: other",113 % of control
same,T/C,[8],97 % of control
same,T/C,"dose: 200.0 mg/kg/injection, schedule: Q04DX003 (ip), vehicle: other",105 % of control
same,T/C,[9],96 % of control
same,T/C,"dose: 400.0 mg/kg/injection, schedule: Q04DX003 (ip), vehicle: other",94 % of control
Cc1c2ccncc2c(C)c2c1sc1ccccc12,T/C,"dose: 5.0 mg/kg/injection, schedule: Q01DX009 (ip), vehicle: Klucel (hydroxypropylcellulose) (HPC)",106 % of control
same,T/C,"dose: 10.0 mg/kg/injection, schedule: Q01DX009 (ip), vehicle: Klucel (hydroxypropylcellulose) (HPC)",117 % of control
same,T/C,"dose: 20.0 mg/kg/injection, schedule: Q01DX009 (ip), vehicle: Klucel (hydroxypropylcellulose) (HPC)",124 % of control
same,T/C,"dose: 20.0 mg/kg/injection, schedule: Q01DX009 (ip), vehicle: other",113 % of control
same,T/C,"dose: 31.0 mg/kg/injection, schedule: Q01DX001 (ip), vehicle: other",105 % of control
same,T/C,"dose: 62.0 mg/kg/injection, schedule: Q01DX001 (ip), vehicle: other",111 % of control
same,T/C,"dose: 80.0 mg/kg/injection, schedule: Q01DX009 (ip), vehicle: other",121 % of control
same,T/C,"dose: 125.0 mg/kg/injection, schedule: Q01DX001 (ip), vehicle: other",121 % of control
same,T/C,"dose: 250.0 mg/kg/injection, schedule: Q01DX001 (oral), vehicle: other",112 % of control
same,T/C,"dose: 500.0 mg/kg/injection, schedule: Q01DX001 (ip), vehicle: other",187 % of control
same,T/C,"dose: 500.0 mg/kg/injection, schedule: Q01DX001 (oral), vehicle: other",112 % of control
CN(C(=O)N(CCCl)N=O)C1CCC(C(=O)O)CC1 (configuration not stated),T/C,"dose: 12.0 mg/kg/injection, schedule: Q01DX009 (ip), vehicle: alkali diluted with saline",95 % of control
same,T/C,"dose: 18.0 mg/kg/injection, schedule: Q01DX009 (ip), vehicle: alkali diluted with saline",103 % of control
same,T/C,"dose: 24.0 mg/kg/injection, schedule: Q01DX001 (ip), vehicle: saline + Tween-80 + alkali",93 % of control
same,T/C,"dose: 26.0 mg/kg/injection, schedule: Q01DX009 (ip), vehicle: alkali diluted with saline",103 % of control
same,T/C,"dose: 36.0 mg/kg/injection, schedule: Q01DX001 (ip), vehicle: saline + Tween-80 + alkali",98 % of control
same,T/C,"dose: 40.0 mg/kg/injection, schedule: Q01DX009 (ip), vehicle: alkali diluted with saline",111 % of control
same,T/C,"dose: 54.0 mg/kg/injection, schedule: Q01DX001 (ip), vehicle: saline + Tween-80 + alkali",98 % of control
same,T/C,"dose: 60.0 mg/kg/injection, schedule: Q01DX009 (ip), vehicle: alkali diluted with saline",119 % of control
same,T/C,"dose: 80.0 mg/kg/injection, schedule: Q01DX001 (ip), vehicle: saline + Tween-80 + alkali",104 % of control
same,T/C,"dose: 120.0 mg/kg/injection, schedule: Q01DX001 (ip), vehicle: saline + Tween-80 + alkali",113 % of control
same,T/C,"dose: 180.0 mg/kg/injection, schedule: Q01DX001 (ip), vehicle: saline + Tween-80 + alkali",121 % of control
same,T/C,"dose: 400.0 mg/kg/injection, schedule: Q01DX001 (ip), vehicle: saline + Tween-80 + alkali",180 % of control
COc1ccc([N+](=O)[O-])cc1NC(=O)Nc1cccc(F)c1,T/C,"dose: 100.0 mg/kg/injection, schedule: Q01DX009 (ip), vehicle: gum acacia",90 % of control
same,T/C,"dose: 200.0 mg/kg/injection, schedule: Q01DX009 (ip), vehicle: gum acacia",95 % of control
same,T/C,"dose: 400.0 mg/kg/injection, schedule: Q01DX009 (ip), vehicle: gum acacia",90 % of control
O=C(C(CO)C(CO)C(=O)N1Cc2cc3ccccc3nc2C1)N1Cc2cc3ccccc3nc2C1 (configuration not stated),T/C,"dose: 100.0 mg/kg/injection, schedule: Q01DX001 (ip), vehicle: Klucel (hydroxypropylcellulose) (HPC)",103 % of control
same,T/C,"dose: 200.0 mg/kg/injection, schedule: Q01DX001 (ip), vehicle: Klucel (hydroxypropylcellulose) (HPC)",95 % of control
same,T/C,"dose: 400.0 mg/kg/injection, schedule: Q01DX001 (ip), vehicle: Klucel (hydroxypropylcellulose) (HPC)",92 % of control
O=C(NC(CO)C(=O)OCc1ccccc1)OCc1ccccc1 (configuration not stated),T/C,[1],104 % of control
same,T/C,[2],104 % of control
same,T/C,"dose: 100.0 mg/kg/injection, schedule: Q04DX003 (ip), vehicle: saline with Tween-80",98 % of control
same,T/C,[3],102 % of control
same,T/C,[4],101 % of control
same,T/C,"dose: 200.0 mg/kg/injection, schedule: Q04DX003 (ip), vehicle: saline with Tween-80",95 % of control
same,T/C,[5],102 % of control
same,T/C,[6],90 % of control
same,T/C,"dose: 400.0 mg/kg/injection, schedule: Q04DX003 (ip), vehicle: saline with Tween-80",90 % of control
